From ChEMBL document CHEMBL4196036, “Benzomorphan scaffold for opioid analgesics and pharmacological tools development: A comprehensive review” (Eur J Med Chem, 2018)

Tests used:
[1] = biological target: T1, Mu-type opioid receptor (Homo sapiens, UniProt P35372); assay: Displacement of [3H]DAMGO from MOR (unknown origin) expressed in CHO cell membranes
[2] = biological target: T2, Kappa-type opioid receptor (Homo sapiens, UniProt P41145); assay: Displacement of [3H]U69,593 from KOR (unknown origin) expressed in CHO cell membranes
T2 sequence (P41145 whole entry): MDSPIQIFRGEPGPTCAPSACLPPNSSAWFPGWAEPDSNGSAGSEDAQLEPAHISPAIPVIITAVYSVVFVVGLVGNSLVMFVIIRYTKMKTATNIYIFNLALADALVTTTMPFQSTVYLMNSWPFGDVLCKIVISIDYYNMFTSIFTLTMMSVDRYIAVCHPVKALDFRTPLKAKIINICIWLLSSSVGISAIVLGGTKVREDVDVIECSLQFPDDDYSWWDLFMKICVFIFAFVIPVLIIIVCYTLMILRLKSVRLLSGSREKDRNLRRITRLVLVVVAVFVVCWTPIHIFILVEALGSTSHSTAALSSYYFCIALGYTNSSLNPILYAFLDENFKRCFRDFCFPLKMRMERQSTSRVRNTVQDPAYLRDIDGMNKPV

[3] = biological target: T3, Delta-type opioid receptor (Homo sapiens, UniProt P41143); assay: Displacement of [3H]naltrindole from DOR (unknown origin) expressed in CHO cell membranes
T3 sequence (P41143 whole entry): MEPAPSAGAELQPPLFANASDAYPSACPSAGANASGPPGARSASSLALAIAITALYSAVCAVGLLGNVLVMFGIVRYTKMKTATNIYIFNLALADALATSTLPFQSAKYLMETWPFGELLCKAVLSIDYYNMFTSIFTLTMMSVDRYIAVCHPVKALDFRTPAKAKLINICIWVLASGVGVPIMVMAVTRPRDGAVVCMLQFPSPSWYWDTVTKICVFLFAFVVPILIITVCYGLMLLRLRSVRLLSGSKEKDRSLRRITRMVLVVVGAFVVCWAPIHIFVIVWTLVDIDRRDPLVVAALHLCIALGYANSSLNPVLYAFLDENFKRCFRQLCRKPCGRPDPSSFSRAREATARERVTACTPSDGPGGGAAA

[4] = biological target: T4, Mu-type opioid receptor (Cavia porcellus, UniProt P97266); assay: Displacement of [3H]DAMGO from MOR in guinea pig brain membranes; format: cell membranes, Membrane
T4 sequence (P97266 whole entry): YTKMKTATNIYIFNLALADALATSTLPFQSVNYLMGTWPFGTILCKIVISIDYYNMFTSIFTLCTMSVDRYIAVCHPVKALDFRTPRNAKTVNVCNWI

[5] = biological target: T2, Kappa-type opioid receptor; assay: Binding affinity to KOR (unknown origin)
[6] = species on record: Homo sapiens; assay: Selectivity ratio of Ki for MOR (unknown origin) to Ki for KOR (unknown origin)
[7] = tested on: Mus musculus; assay: Antinociceptive activity in sc dosed mouse by abdominal constriction assay; format: functional
[8] = species on record: Homo sapiens; assay: Selectivity ratio of Ki for DOR (unknown origin) to Ki for KOR (unknown origin)
[9] = biological target: T5, G_PROTEIN_RECEP_F1_2 domain-containing protein (Cavia porcellus, UniProt A0A286XTF2); assay: Displacement of [3H]Naltrindole from DOR in guinea pig brain membranes after 3 hrs by scintillation counting method; format: cell membranes, Membrane
T5 sequence (A0A286XTF2 whole entry): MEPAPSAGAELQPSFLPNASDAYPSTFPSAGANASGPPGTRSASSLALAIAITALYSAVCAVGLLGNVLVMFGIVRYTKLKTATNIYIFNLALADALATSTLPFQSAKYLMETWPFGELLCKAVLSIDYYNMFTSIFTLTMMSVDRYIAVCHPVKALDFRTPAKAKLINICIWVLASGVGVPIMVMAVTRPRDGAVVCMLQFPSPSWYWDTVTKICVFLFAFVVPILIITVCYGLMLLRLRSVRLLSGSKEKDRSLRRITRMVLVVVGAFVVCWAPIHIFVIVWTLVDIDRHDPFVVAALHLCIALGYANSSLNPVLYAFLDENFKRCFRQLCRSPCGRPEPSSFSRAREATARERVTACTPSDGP

[10] = biological target: G_PROTEIN_RECEP_F1_2 domain-containing protein (Macaca mulatta, UniProt F7HEV7); assay: Displacement of [3H]naltrindole from DOR in monkey brain cortex membranes; format: cell membranes
G_PROTEIN_RECEP_F1_2 domain-containing protein (Macaca mulatta, UniProt F7HEV7), sequence (F7HEV7 whole entry): as the sequence (P41143 whole entry) above, with E10A, C27F, S29N, E112K, V179I counted along it

[11] = tested on: Mus musculus; assay: Antinociceptive activity in sc dosed ICR mouse after 20 mins by tail flick test; format: functional
[12] = biological target: Kappa-type opioid receptor (Macaca mulatta, UniProt H9FL65); assay: Displacement of [3H]U69,593 from KOR in monkey brain cortex membranes; format: cell membranes
Kappa-type opioid receptor (Macaca mulatta, UniProt H9FL65), sequence (H9FL65 whole entry): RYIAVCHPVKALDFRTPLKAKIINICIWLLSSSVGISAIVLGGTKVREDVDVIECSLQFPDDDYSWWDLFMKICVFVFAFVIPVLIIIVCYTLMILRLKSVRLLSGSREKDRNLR

[13] = tested on: Mus musculus; assay: Analgesic activity in sc dosed ICR mouse after 30 mins by hot plate test; format: functional; details: 0.5 h
[14] = biological target: Mu-type opioid receptor (Macaca mulatta, UniProt Q9MYW9); assay: Displacement of [3H]DAMGO from MOR in monkey brain cortex membranes; format: cell membranes
Mu-type opioid receptor (Macaca mulatta, UniProt Q9MYW9), sequence (Q9MYW9 whole entry): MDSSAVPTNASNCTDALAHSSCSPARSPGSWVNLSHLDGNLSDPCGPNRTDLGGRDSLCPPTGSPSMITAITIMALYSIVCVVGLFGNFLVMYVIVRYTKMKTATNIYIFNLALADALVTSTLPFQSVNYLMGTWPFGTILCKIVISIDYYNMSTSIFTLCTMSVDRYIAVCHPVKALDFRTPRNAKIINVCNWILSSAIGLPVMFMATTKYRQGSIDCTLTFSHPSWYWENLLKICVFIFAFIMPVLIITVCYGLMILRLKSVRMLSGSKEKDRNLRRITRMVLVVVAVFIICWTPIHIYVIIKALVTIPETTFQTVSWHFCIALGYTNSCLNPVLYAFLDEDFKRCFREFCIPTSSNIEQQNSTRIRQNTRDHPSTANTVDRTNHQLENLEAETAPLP

[15] = species on record: Mus musculus; assay: Antinociceptive activity in mouse by paraphenylquinone assay; format: functional
[16] = biological target: T5, G_PROTEIN_RECEP_F1_2 domain-containing protein; assay: Displacement of [3H]Naltrindole from DOR in guinea pig brain membranes; format: cell membranes, Membrane
[17] = biological target: T6, Kappa-type opioid receptor (Cavia porcellus, UniProt P41144); assay: Displacement of [3H]U69,593 from KOR in guinea pig brain membranes; format: cell membranes, Membrane
T6 sequence (P41144 whole entry): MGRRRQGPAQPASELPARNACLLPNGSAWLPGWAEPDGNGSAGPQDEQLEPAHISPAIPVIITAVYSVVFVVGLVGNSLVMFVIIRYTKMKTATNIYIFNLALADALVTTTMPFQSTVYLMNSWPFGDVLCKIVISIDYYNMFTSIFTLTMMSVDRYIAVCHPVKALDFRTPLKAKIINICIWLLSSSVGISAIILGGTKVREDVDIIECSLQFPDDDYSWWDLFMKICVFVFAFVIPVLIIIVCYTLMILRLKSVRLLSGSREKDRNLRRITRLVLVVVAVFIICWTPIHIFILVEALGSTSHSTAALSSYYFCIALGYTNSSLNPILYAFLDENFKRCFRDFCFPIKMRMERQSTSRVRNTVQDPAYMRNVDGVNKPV

[18] = biological target: T2, Kappa-type opioid receptor; assay: Displacement of [3H]U69,593 from human KOR expressed in HEK293 cell membranes after 1 hr by scintillation counting method
[19] = biological target: T1, Mu-type opioid receptor; assay: Displacement of [3H]-diprenorphine from MOR (unknown origin) after 1 to 2 hrs by scintillation counting method
[20] = biological target: T2, Kappa-type opioid receptor; assay: Agonist activity at human KOR expressed in HEK293 cell membranes assessed as stimulation of [35S]GTPgammaS binding after 30 mins by scintillation counting method relative to control; format: functional
[21] = biological target: T2, Kappa-type opioid receptor; assay: Agonist activity at human KOR expressed in HEK293 cell membranes assessed as stimulation of [35S]GTPgammaS binding after 30 mins by scintillation counting method; format: functional
[22] = biological target: T6, Kappa-type opioid receptor; assay: Displacement of [3H]U69,593 from KOR in guinea pig brain membranes after 60 mins by scintillation counting method; format: cell membranes, Membrane
[23] = biological target: T4, Mu-type opioid receptor; assay: Displacement of [3H]DAMGO from MOR in guinea pig brain membranes after 60 mins by scintillation counting method; format: cell membranes, Membrane
[24] = biological target: T1, Mu-type opioid receptor; assay: Binding affinity to MOR (unknown origin)
[25] = biological target: T3, Delta-type opioid receptor; assay: Binding affinity to DOR (unknown origin)
[26] = tested on: Mus musculus; assay: Antinociceptive activity in sc dosed mouse assessed as inhibition of PPQ-induced stretching response pretreated for 10 mins followed by PPQ treatment measured for 1 min at 10 to 15 mins post PPQ treatment; format: functional

T1 sequence (P35372 whole entry): as the sequence (Q9MYW9 whole entry) above, with V6A, H19Y, R26P, V119A, S154F, S227T, I293V, D344N counted along it

C[C@H]1[C@H]2Cc3cc4sc(N)nc4cc3[C@@]1(C)CCN2CC1CC1
Ki [1]: 48 nM | Ki [2]: 6.7 nM | Ki [3]: 940 nM

CC1C2Cc3ccc(NC=O)cc3C1(C)CCN2CC1CC1 (racemic)
Ki [4]: 1.9 nM

CCCCC(=N)NCCCCCNC(=O)[C@H](CC(C)C)NC(=O)CNC(=O)[C@@]1(c2ccccc2)C[C@H]1CN1CC[C@]2(C)c3cc(O)ccc3C[C@@H]1[C@@H]2C
Ki [5]: 6.7 nM | Ratio Ki [6]: 375 | ED50 [7]: 0.88 mg/kg | Ratio Ki [8]: 408

C[C@H]1[C@H]2Cc3cc4sc(N)nc4cc3[C@@]1(C)CCN2CC1CCC1
Ki [1]: 8.3 nM | Ki [2]: 0.49 nM | Ki [3]: 93 nM

CC1C2Cc3ccc(C(N)=O)cc3C1(C)CCN2CC1CC1 (racemic)
Ki [9]: 8.3 nM

C[C@H]1[C@H]2Cc3ccc(O)cc3[C@@]1(C)CCN2CCCC#N
Ki [10]: 5.8 nM | ED50 [11]: 0.4 mg/kg | Ki [12]: 0.4 nM | ED50 [13]: 1 mg/kg | Ki [14]: 23 nM | ED50 [15]: 0.01 mg/kg

C[C@H]1[C@H]2Cc3ccc(Nc4ccccc4)cc3[C@@]1(C)CCN2CC1CC1
Ki [9]: 5.2 nM

C[C@H]1[C@H]2Cc3ccc(NC=O)cc3[C@]1(C)CCN2CC1CC1
Ki [4]: 1.1 nM | Ki [16]: 9.8 nM | Ki [17]: 0.49 nM

C=CCCN1CC[C@]2(C)c3cc(O)ccc3C[C@@H]1[C@@H]2C
Ki [10]: 21 nM | ED50 [11]: 0.05 mg/kg | Ki [12]: 1.3 nM | ED50 [13]: 0.3 mg/kg | Ki [14]: 2.1 nM | ED50 [15]: 0.8 mg/kg

C=CC[N+]1(C)CC[C@]2(C)c3cc(O)ccc3C[C@@H]1[C@@H]2C (some centres undefined)
Ki [18]: 10.3 nM | Ki [19]: 56.4 nM | Emax [20]: 27.3% | EC50 [21]: 268 nM

CC1C2Cc3ccc(O)cc3C1(C)CCN2CC1CC1 (racemic)
Ki [22]: 0.18 nM | Ki [9]: 1.1 nM

CC1C2Cc3ccc(Nc4cccnc4)cc3C1(C)CCN2CC1CC1 (racemic)
Ki [23]: 0.64 nM | Ki [22]: 0.5 nM | Ki [9]: 21 nM

C[C@H]1[C@H]2Cc3ccc(O)cc3[C@@]1(C)CCN2C[C@@H]1C[C@@]1(CN1CCCCC1)c1ccccc1
Ki [5]: 179 nM | Ki [24]: 45 nM

CCC12CCN(CC3CC3)C(C(=O)c3ccc(O)cc31)C2C (racemic)
Ki [25]: 3.4 nM | Ki [9]: 3.4 nM | Ki [24]: 0.78 nM

C[C@H]1[C@H]2Cc3ccc(O)cc3[C@@]1(C)CCN2CC1CC1
Ki [22]: 0.052 nM | Ki [9]: 0.58 nM

C[C@H]1[C@H]2Cc3ccc(N)cc3[C@@]1(C)CCN2CC1CC1
Ki [9]: 12 nM

C[C@H]1[C@H]2C(=O)c3ccc(O)cc3[C@@]1(C)CCN2CC1CCCO1 (some centres undefined)
Ki [5]: 720 nM | Ki [25]: > 10000 nM | Ki [24]: 2900 nM

CCC12CCN(CC3CC3)C(C(=O)c3ccc(NC=O)cc31)C2C (racemic)
Ki [4]: 6.1 nM

C#CCCN1CC[C@]2(C)c3cc(O)ccc3C[C@@H]1[C@@H]2C
Ki [10]: 10 nM | ED50 [11]: 0.05 mg/kg | Ki [12]: 1.4 nM | ED50 [13]: 0.04 mg/kg | Ki [14]: 4.6 nM | ED50 [15]: 0.1 mg/kg

C[C@H]1[C@H]2Cc3ccc(O)cc3[C@@]1(C)CCN2C[C@@H]1C[C@@]1(C(=O)NCc1ccccc1)c1ccccc1
Ki [5]: 35 nM

C[C@H]1[C@H]2Cc3ccc(O)cc3[C@@]1(C)CCN2C[C@@H]1CCCO1
Ki [9]: 2.5 nM

C[C@H]1[C@H]2Cc3ccc(O)cc3[C@@]1(C)CCN2CCC#N
Ki [10]: 4.2 nM | ED50 [11]: 0.3 mg/kg | Ki [12]: 0.4 nM | ED50 [13]: 0.1 mg/kg | Ki [14]: 9.8 nM | ED50 [15]: 0.05 mg/kg

C[C@H]1[C@H]2Cc3ccc(O)cc3[C@@]1(C)CC[N+]2(C)CC1CC1 (some centres undefined)
Ki [18]: 4.33 nM | Ki [19]: 23 nM | Emax [20]: 50% | EC50 [21]: 77.3 nM

C[C@H]1[C@H]2Cc3ccc(O)cc3[C@@]1(C)CCN2CCCCCCO
ED50 [26]: 1.9 mg/kg

COc1ccc(Nc2ccc3c(c2)C2(C)CCN(CC4CC4)C(C3)C2C)cc1 (racemic)
Ki [23]: 0.47 nM | Ki [22]: 0.29 nM | Ki [9]: 8.3 nM

C=CCN1CC[C@]2(C)c3cc(O)ccc3C[C@@H]1[C@@H]2C
Ki [10]: 5.5 nM | Ki [12]: 0.3 nM | Ki [14]: 0.9 nM | ED50 [15]: 0.1 mg/kg

CCCCC(=N)NCCCCCCNC(=O)[C@H](CC(C)C)NC(=O)CNC(=O)[C@@]1(c2ccccc2)C[C@H]1CN1CC[C@]2(C)c3cc(O)ccc3C[C@@H]1[C@@H]2C
Ki [5]: 5.3 nM | Ratio Ki [6]: 408 | ED50 [7]: 1.1 mg/kg | Ratio Ki [8]: 424
